Results from publication PMC10407959 (Journal of medicinal chemistry, 2023).
One block for each compound: values may come before it.

Columns and labels:
5-HT5A = 5-HT5A (Homo sapiens, UniProt P47898); test: PDSP off-target radioligand binding
mouse CCI model = test: mouse model of chronic neuropathic pain; settings: day 7 post-sciatic nerve constriction, adult male mice
mP2Y14R = molecular target: T1, mP2Y14R (Mus musculus, UniProt Q9ESG6); test: whole-cell fluorescent binding assay at mP2Y14R expressed in HEK-293 cells
T1 sequence (Q9ESG6 1-338): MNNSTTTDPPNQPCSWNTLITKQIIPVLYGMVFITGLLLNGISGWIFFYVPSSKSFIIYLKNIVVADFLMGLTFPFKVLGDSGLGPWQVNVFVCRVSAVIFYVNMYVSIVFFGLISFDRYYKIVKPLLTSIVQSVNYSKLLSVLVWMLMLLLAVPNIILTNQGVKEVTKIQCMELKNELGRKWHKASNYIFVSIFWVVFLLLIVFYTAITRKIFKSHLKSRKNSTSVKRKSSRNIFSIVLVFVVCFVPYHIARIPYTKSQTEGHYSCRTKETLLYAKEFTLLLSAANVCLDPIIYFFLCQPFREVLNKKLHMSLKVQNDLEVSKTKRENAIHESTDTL

hP2Y14R [1] = molecular target: T2, hP2Y14R (Homo sapiens, UniProt Q15391); test: whole-cell fluorescent competitive binding assay; settings: up to 100 μM, tracer 52, hP2Y14R-expressing CHO cells
T2 sequence (Q15391 1-338): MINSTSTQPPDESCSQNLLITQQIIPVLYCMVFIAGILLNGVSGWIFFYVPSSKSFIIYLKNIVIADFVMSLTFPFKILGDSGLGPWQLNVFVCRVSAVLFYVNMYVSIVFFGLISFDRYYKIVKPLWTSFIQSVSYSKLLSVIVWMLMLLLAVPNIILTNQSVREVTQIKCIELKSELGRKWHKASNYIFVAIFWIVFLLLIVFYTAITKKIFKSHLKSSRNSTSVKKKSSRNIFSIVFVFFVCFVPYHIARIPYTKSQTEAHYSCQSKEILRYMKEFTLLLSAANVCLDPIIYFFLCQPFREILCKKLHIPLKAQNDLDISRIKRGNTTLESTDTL

[2] = pharmacokinetics of mono-ester prodrug 63 s.c. in female CD1 mice; settings: 10 mg/kg s.c.
[3] = pharmacokinetics of double prodrug 62 p.o. in female CD1 mice; settings: 62 by oral gavage (p.o.)
hP2Y14R [4] = molecular target: T2, hP2Y14R; test: fluorescent binding saturation study in whole CHO cells expressing hP2Y14R; settings: final concentrations of 53 of 2, 100, 500, and 20,000 nM
[5] = test system: protease-mediated mouse model of allergic asthma; test: protease-mediated mouse model of allergic asthma, BAL fluid cells; settings: 10 mg/kg i.p., C57BL/6J mice

Chain of 5-HT5A (P47898 whole entry, species assumed): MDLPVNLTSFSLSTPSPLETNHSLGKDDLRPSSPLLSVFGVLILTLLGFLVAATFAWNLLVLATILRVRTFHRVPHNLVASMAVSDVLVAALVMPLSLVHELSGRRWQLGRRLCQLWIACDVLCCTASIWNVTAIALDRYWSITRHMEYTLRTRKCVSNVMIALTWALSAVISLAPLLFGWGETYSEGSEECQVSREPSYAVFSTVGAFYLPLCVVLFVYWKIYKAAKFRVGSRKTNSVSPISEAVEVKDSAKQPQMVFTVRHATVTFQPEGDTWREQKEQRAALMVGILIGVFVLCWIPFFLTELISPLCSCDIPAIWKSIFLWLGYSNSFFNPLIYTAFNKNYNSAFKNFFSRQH

- Ki (5-HT5A): 4.8 µM
SMILES: O=C(O)c1cc(-c2ccc(C3CCCNCC3)cc2)c2ccc(-c3ccc(C(F)(F)F)cc3)cc2c1 (stereo not drawn) [compound 16, 4-(4-(Azepan-4-yl)phenyl)-7-(4-(trifluoromethyl)phenyl)-2-naphthoic Acid]
- reversal of mechano-allodynia (paw withdrawal threshold) (mouse CCI model; i.p. injection): provided benefit

- more potent at the mP2Y14R (vs human) (mP2Y14R): 3 fold
SMILES: O=C(O)c1cc(-c2ccc(C3=C[C@H]4CNC[C@@H]4C3)cc2)c2ccc(-c3ccc(C(F)(F)F)cc3)cc2c1 (racemic) [compound 12, rac-4-(4-((3aR,6aR)-1,2,3,3a,4,6a-Hexahydrocyclopenta[c]-pyrrol-5-yl)phenyl)-7-(4-(trifluoromethyl)phenyl)-2-naphthoic Acid]

- binding inhibition (hP2Y14R [1]): no binding inhibition
SMILES: O=C(Cc1ccc(C(F)(F)F)cc1)Nc1cccc(-c2nc3cc(Cl)ccc3o2)c1 [4a, reference compound]

- in vivo cleavage of prodrug to active drug 2b [2]: rapid cleavage of the ester group
SMILES: CN(C)C(=O)COC(=O)c1cc(-c2ccc([C@H]3C[C@H]4C[C@@H]3CN4)cc2)c2ccc(-c3ccc(C(F)(F)F)cc3)cc2c1 [compound 63, reference compound]
- reversal of mechano-allodynia (paw withdrawal threshold) (mouse CCI model; 10 μmol/kg, p.o. (oral gavage)): fully efficacious within 1 h

- oral bioavailability [3]: 6.9 % F
- peak concentration [3]: ~ 2 μg/mL
SMILES: CCOC(=O)N1CCC(c2ccc(-c3cc(C(=O)OCC(=O)N(C)C)cc4cc(-c5ccc(C(F)(F)F)cc5)ccc34)cc2)CC1 [compound 62, Ethyl 4-(4-(3-((2-(Dimethylamino)-2-oxoethoxy)carbonyl)-6-(4-(trifluoromethyl)phenyl)naphthalen-1-yl)phenyl)piperidine-1-carboxylate]
- reversal of mechano-allodynia (paw withdrawal threshold) (mouse CCI model; i.p. injection): provided benefit

- Ki (5-HT5A): 2.4 µM
SMILES: O=C(O)c1cc(-c2ccc(C3(O)C[C@H]4CNC[C@@H]4C3)cc2)c2ccc(-c3ccc(C(F)(F)F)cc3)cc2c1 (racemic) [compound 11, rac-4-(4-((3aR,6aR)-5-Hydroxyoctahydrocyclopenta[c]pyrrol-5-yl)phenyl)-7-(4-(trifluoromethyl)phenyl)-2-naphthoic Acid]
- reversal of mechano-allodynia (paw withdrawal threshold) (mouse CCI model; i.p. injection): maintained over 3 h

SMILES: C[Si]1(C)C2=CC(=[N+]3CCC3)C=CC2=C(c2cc(C(=O)NCCCCCCn3cc(CCCCN4CCC(c5ccc(-c6cc(C(=O)O)cc7cc(-c8ccc(C(F)(F)F)cc8)ccc67)cc5)CC4)nn3)ccc2C(=O)[O-])c2ccc(N3CCC3)cc21 [compound 53]
- specific binding in whole CHO cells expressing the hP2Y14R (hP2Y14R [4]): did not demonstrate potent specific binding

SMILES: CCOC(=O)N1C[C@H]2C[C@@H]1C[C@@H]2c1ccc(-c2cc(C(=O)OCC(=O)N(C)C)cc3cc(-c4ccc(C(F)(F)F)cc4)ccc23)cc1 [compound 64, reference compound]
- reversal of mechano-allodynia (paw withdrawal threshold) (mouse CCI model; i.p. injection): provided benefit

SMILES: CCOC(=O)N1C[C@H]2C[C@@H](C1)[C@@]2(O)c1ccc(-c2cc(C(=O)OCC(=O)N(C)C)cc3cc(-c4ccc(C(F)(F)F)cc4)ccc23)cc1 [compound 50, Ethyl (1R,5S,6r)-6-(4-(3-((2-(Dimethylamino)-2-oxoethoxy)-carbonyl)-6-(4-(trifluoromethyl)phenyl)naphthalen-1-yl)phenyl)-6-hydroxy-3-azabicyclo[3.1.1]heptane-3-carboxylate]
- airway eosinophilia (eosinophils in BAL fluid) [5]: lack of activity
- reversal of mechano-allodynia (paw withdrawal threshold) (mouse CCI model; 10 μmol/kg, p.o. (oral gavage)): reversed the mechano-allodynia
